Measurements as given in US7138361B2, “Herbicidal heterocycles” (E. I. du Pont de Nemours and Company, priority 2000, dated 2006).

How the values were obtained:
Type in all cases: in vivo
wild oat (Avena fatua) = assay: Test B postemergence; conditions: 13 to 15 days
Procedure, shortened: (§1)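 Ratings on a 0 to 100 visual scale (100 complete control) compare treated plants with controls 13 to 15 days after application. Treatments were pre- or postemergence sprays of compound in non-phytotoxic solvent with surfactant.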

[1] = tested on: velvetleaf (Abutilon theophrasti); assay: Test B postemergence; conditions: 13 to 15 days
Procedure, shortened: as §1

corn (Zea mays) [2] = assay: Test B postemergence; conditions: 13 to 15 days
Procedure, shortened: as §1

[3] = tested on: barnyardgrass (Echinochloa crus-galli); assay: Test B postemergence; conditions: 13 to 15 days
Procedure, shortened: as §1

[4] = tested on: crabgrass (Digitaria sanguinalis); assay: Test B postemergence; conditions: 13 to 15 days
Procedure, shortened: as §1

[5] = tested on: Surinam grass (Brachiaria decumbens); assay: Test B postemergence; conditions: 13 to 15 days
Procedure, shortened: as §1

[6] = tested on: pigweed (Amaranthus retroflexus); assay: Test B postemergence; conditions: 13 to 15 days
Procedure, shortened: as §1

[7] = tested on: giant foxtail (Setaria faberii); assay: Test B postemergence; conditions: 13 to 15 days
Procedure, shortened: as §1

[8] = tested on: morning glory (Ipomoea hederacea); assay: Test B postemergence; conditions: 13 to 15 days
Procedure, shortened: as §1

[9] = tested on: cocklebur (Xanthium strumarium); assay: Test B postemergence; conditions: 13 to 15 days
Procedure, shortened: as §1

[10] = tested on: wheat (Triticum aestivum); assay: Test B postemergence; conditions: 13 to 15 days
Procedure, shortened: as §1

[11] = tested on: yellow nutsedge (Cyperus esculentus); assay: Test C preemergence; conditions: for Plant response rating, Nutsedge: scale 0 to 100, 0 no effect, 100 complete control; for Plant response rating (0 to 100), Nutsedge: Rate 500 g/ha, visual evaluation after 12 to 14 days
Procedure, shortened: (§2)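 Plants held in greenhouse for 12–14 days post-application are scored by eye against controls on a 0–100 control scale. Application timing: preemergence on sown seed, or postemergence on 2–18 cm plants.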

[12] = tested on: common ragweed (Ambrosia elatior); assay: Test C preemergence; conditions: for Plant response rating, Ragweed, Common: scale 0 to 100, 0 no effect, 100 complete control; for Plant response rating (0 to 100), Ragweed, Common: Rate 500 g/ha, visual evaluation after 12 to 14 days
Procedure, shortened: as §2

[13] = tested on: velvetleaf (Abutilon theophrasti); assay: Test C preemergence; conditions: for Plant response rating, Velvetleaf: scale 0 to 100, 0 no effect, 100 complete control; for Plant response rating (0 to 100), Velvetleaf: Rate 500 g/ha, visual evaluation after 12 to 14 days
Procedure, shortened: as §2

corn (Zea mays) [14] = assay: Test C preemergence; conditions: for Plant response rating, Corn: scale 0 to 100, 0 no effect, 100 complete control; for Plant response rating (0 to 100), Corn: preemergence, visual evaluation after 12 to 14 days
Procedure, shortened: as §2

Sunflower [15] = assay: Test C preemergence; conditions: Rate 125 g/ha; scale 0 to 100, 0 no effect, 100 complete control
[16] = tested on: morningglory (Ipomoea hederacea); assay: Test C preemergence; conditions: for Plant response rating, Morningglory: scale 0 to 100, 0 no effect, 100 complete control; for Plant response rating (0 to 100), Morningglory: Rate 500 g/ha, visual evaluation after 12 to 14 days
Procedure, shortened: as §2

[17] = tested on: goosegrass (Eleusine indica); assay: Test C preemergence; conditions: for Plant response rating, Goosegrass: scale 0 to 100, 0 no effect, 100 complete control; for Plant response rating (0 to 100), Goosegrass: preemergence, visual evaluation after 12 to 14 days
Procedure, shortened: as §2

Nightshade = assay: Test C preemergence; conditions: scale 0 to 100, 0 no effect, 100 complete control
[18] = tested on: johnsongrass (Sorghum halepense); assay: Test C preemergence; conditions: for Plant response rating, Johnsongrass: scale 0 to 100, 0 no effect, 100 complete control; for Plant response rating (0 to 100), Johnsongrass: preemergence, visual evaluation after 12 to 14 days
Procedure, shortened: as §2

[19] = tested on: lambsquarters (Chenopodium album); assay: Test C preemergence; conditions: for Plant response rating, Lambsquarters: scale 0 to 100, 0 no effect, 100 complete control; for Plant response rating (0 to 100), Lambsquarters: Rate 500 g/ha, visual evaluation after 12 to 14 days
Procedure, shortened: as §2

Sunflower [20] = assay: Test C preemergence; conditions: Rate 500 g/ha, visual evaluation after 12 to 14 days
[21] = Rate 125 g/ha, scale 0 (no effect) to 100 (complete control)
[22] = Rate 500 g/ha, scale 0 to 100, 0 is no effect, 100 is complete control

CC(C)Oc1cccc(N2CCC(n3ccc(C(C)C)n3)C2=O)c1 (stereo not drawn) [Compound 82]
Plant response rating, Wild Oat (wild oat (Avena fatua); [21]): 0 | Plant response rating, Wild Oat (wild oat (Avena fatua); [22]): 0 | Plant response rating, Velvetleaf [1, 21]: 0 | Plant response rating, Velvetleaf [1, 22]: 0 | Plant response rating, Corn (corn (Zea mays) [2]; [21]): 0 | Plant response rating, Corn (corn (Zea mays) [2]; [22]): 0 | Plant response rating, Barnyardgrass [3, 21]: 0 | Plant response rating, Barnyardgrass [3, 22]: 0 | Plant response rating, Crabgrass [4, 21]: 0 | Plant response rating, Crabgrass [4, 22]: 10 | Plant response rating, Surinam grass [5, 21]: 0 | Plant response rating, Surinam grass [5, 22]: 0 | Plant response rating, Pigweed [6, 21]: 0 | Plant response rating, Pigweed [6, 22]: 10 | Plant response rating, Foxtail, Giant [7, 21]: 0 | Plant response rating, Foxtail, Giant [7, 22]: 0 | Plant response rating, Morningglory [8, 21]: 0 | Plant response rating, Morningglory [8, 22]: 10 | Plant response rating, Cocklebur [9, 21]: 0 | Plant response rating, Cocklebur [9, 22]: 20 | Plant response rating, Wheat [10, 21]: 0 | Plant response rating, Wheat [10, 22]: 0 | Plant response rating, Nutsedge ([11]; Rate 62 g/ha): 0 | Plant response rating, Nutsedge ([11]; Rate 125 g/ha): 0 | Plant response rating (0 to 100), Nutsedge ([11]; preemergence): 40 | Plant response rating, Nutsedge ([11]; preemergence, Rate 250 g/ha): 10 | Plant response rating, Ragweed, Common ([12]; Rate 125 g/ha): 0 | Plant response rating (0 to 100), Ragweed, Common ([12]; preemergence): 100 | Plant response rating, Ragweed, Common ([12]; preemergence, Rate 250 g/ha): 50 | Plant response rating, Velvetleaf ([13]; Rate 125 g/ha): 10 | Plant response rating (0 to 100), Velvetleaf ([13]; preemergence): 30 | Plant response rating, Velvetleaf ([13]; preemergence, Rate 250 g/ha): 10 | Plant response rating, Corn (corn (Zea mays) [14]; Rate 62 g/ha): 0 | Plant response rating, Corn (corn (Zea mays) [14]; Rate 125 g/ha): 20 | Plant response rating (0 to 100), Corn (corn (Zea mays) [14]; Rate 250 g/ha): 10 | Plant response rating (0 to 100), Corn (corn (Zea mays) [14]; Rate 500 g/ha): 30 | Plant response rating, Sunflower (Sunflower [15]): 20 | Plant response rating, Morningglory ([16]; Rate 62 g/ha): 20 | Plant response rating, Morningglory ([16]; Rate 125 g/ha): 10 | Plant response rating (0 to 100), Morningglory ([16]; preemergence): 80 | Plant response rating, Morningglory ([16]; preemergence, Rate 250 g/ha): 20 | Plant response rating, Goosegrass ([17]; Rate 62 g/ha): 90 | Plant response rating, Goosegrass ([17]; Rate 125 g/ha): 100 | Plant response rating (0 to 100), Goosegrass ([17]; Rate 250 g/ha): 100 | Plant response rating (0 to 100), Goosegrass ([17]; Rate 500 g/ha): 100 | Plant response rating, Nightshade (Nightshade; Rate 62 g/ha): 0 | Plant response rating, Nightshade (Nightshade; Rate 125 g/ha): 10 | Plant response rating, Nightshade (Nightshade; Rate 250 g/ha): 30 | Plant response rating, Johnsongrass ([18]; Rate 62 g/ha): 40 | Plant response rating, Johnsongrass ([18]; Rate 125 g/ha): 50 | Plant response rating (0 to 100), Johnsongrass ([18]; Rate 250 g/ha): 50 | Plant response rating (0 to 100), Johnsongrass ([18]; Rate 500 g/ha): 60 | Plant response rating, Lambsquarters ([19]; Rate 62 g/ha): 100 | Plant response rating, Lambsquarters ([19]; Rate 125 g/ha): 100 | Plant response rating (0 to 100), Lambsquarters ([19]; preemergence): 100 | Plant response rating, Lambsquarters ([19]; preemergence, Rate 250 g/ha): 100 | Plant response rating (0 to 100), Sunflower (Sunflower [20]): 80

CCC(C)c1ccn(C2CCN(c3cccc(OC(C)C)c3)C2=O)n1 (stereo not drawn) [Compound 83]
Plant response rating, Wild Oat (wild oat (Avena fatua); [21]): 0 | Plant response rating, Wild Oat (wild oat (Avena fatua); [22]): 0 | Plant response rating, Velvetleaf [1, 21]: 0 | Plant response rating, Velvetleaf [1, 22]: 0 | Plant response rating, Corn (corn (Zea mays) [2]; [21]): 0 | Plant response rating, Corn (corn (Zea mays) [2]; [22]): 0 | Plant response rating, Barnyardgrass [3, 21]: 0 | Plant response rating, Barnyardgrass [3, 22]: 0 | Plant response rating, Crabgrass [4, 21]: 0 | Plant response rating, Crabgrass [4, 22]: 0 | Plant response rating, Surinam grass [5, 21]: 0 | Plant response rating, Surinam grass [5, 22]: 0 | Plant response rating, Pigweed [6, 21]: 0 | Plant response rating, Pigweed [6, 22]: 10 | Plant response rating, Foxtail, Giant [7, 21]: 0 | Plant response rating, Foxtail, Giant [7, 22]: 0 | Plant response rating, Morningglory [8, 21]: 0 | Plant response rating, Morningglory [8, 22]: 10 | Plant response rating, Cocklebur [9, 21]: 10 | Plant response rating, Cocklebur [9, 22]: 10 | Plant response rating, Wheat [10, 21]: 0 | Plant response rating, Wheat [10, 22]: 0 | Plant response rating, Nutsedge ([11]; Rate 62 g/ha): 0 | Plant response rating, Nutsedge ([11]; Rate 125 g/ha): 0 | Plant response rating (0 to 100), Nutsedge ([11]; preemergence): 0 | Plant response rating, Nutsedge ([11]; preemergence, Rate 250 g/ha): 0 | Plant response rating, Ragweed, Common ([12]; Rate 125 g/ha): 0 | Plant response rating (0 to 100), Ragweed, Common ([12]; preemergence): 100 | Plant response rating, Ragweed, Common ([12]; preemergence, Rate 250 g/ha): 0 | Plant response rating, Velvetleaf ([13]; Rate 125 g/ha): 30 | Plant response rating (0 to 100), Velvetleaf ([13]; preemergence): 40 | Plant response rating, Velvetleaf ([13]; preemergence, Rate 250 g/ha): 0 | Plant response rating, Corn (corn (Zea mays) [14]; Rate 62 g/ha): 0 | Plant response rating, Corn (corn (Zea mays) [14]; Rate 125 g/ha): 0 | Plant response rating (0 to 100), Corn (corn (Zea mays) [14]; Rate 250 g/ha): 0 | Plant response rating (0 to 100), Corn (corn (Zea mays) [14]; Rate 500 g/ha): 10 | Plant response rating, Sunflower (Sunflower [15]): 30 | Plant response rating, Morningglory ([16]; Rate 62 g/ha): 0 | Plant response rating, Morningglory ([16]; Rate 125 g/ha): 0 | Plant response rating (0 to 100), Morningglory ([16]; preemergence): 0 | Plant response rating, Morningglory ([16]; preemergence, Rate 250 g/ha): 0 | Plant response rating, Goosegrass ([17]; Rate 62 g/ha): 100 | Plant response rating, Goosegrass ([17]; Rate 125 g/ha): 100 | Plant response rating (0 to 100), Goosegrass ([17]; Rate 250 g/ha): 100 | Plant response rating (0 to 100), Goosegrass ([17]; Rate 500 g/ha): 100 | Plant response rating, Nightshade (Nightshade; Rate 62 g/ha): 0 | Plant response rating, Nightshade (Nightshade; Rate 125 g/ha): 50 | Plant response rating, Nightshade (Nightshade; Rate 250 g/ha): 60 | Plant response rating, Johnsongrass ([18]; Rate 62 g/ha): 20 | Plant response rating, Johnsongrass ([18]; Rate 125 g/ha): 30 | Plant response rating (0 to 100), Johnsongrass ([18]; Rate 250 g/ha): 30 | Plant response rating (0 to 100), Johnsongrass ([18]; Rate 500 g/ha): 30 | Plant response rating, Lambsquarters ([19]; Rate 62 g/ha): 100 | Plant response rating, Lambsquarters ([19]; Rate 125 g/ha): 100 | Plant response rating (0 to 100), Lambsquarters ([19]; preemergence): 100 | Plant response rating, Lambsquarters ([19]; preemergence, Rate 250 g/ha): 100 | Plant response rating (0 to 100), Sunflower (Sunflower [20]): 70
